Results on one compound are retold here after publication PMC8116641 (Archives of Virology, 2021).

This assay relates to influenza A virus A/Aichi/2/68 (H3N2) (Aichi (H3N2)). The experiment in a line: microbe, parasite or virus in culture. Format: cell-based. The note with it: Influenza A virus, H3N2, MDCK, read-out: IC50 (50% inhibitory concentration).

Regarding `CC1(C)[C@H]2CC[C@]1(C)[C@H](OC(=O)C[N+](C)(C)C)C2.[I-]` [10a, N,N,N-Trimethyl-2-oxo-2-((1S,2R,4S)-1,7,7-trimethylbicyclo[2.2.1]heptan-2-yloxy)ethanaminium iodide], the IC50 is 16.8 µM.
